According to patent US20220241308A1, “NEURONAL FUNCTION MODULATING AGENT” (University of Tsukuba, priority 2019, published 2022):

Tests used:
Assay type in all cases: cell-based
[1] = tested on: MAPK14 (mitogen-activated protein kinase 14); assay: Gene expression experiment (real-time PCR) in SH-SY5Y cells: MAPK14; details: 12.56 μM, amyloid β protein-treated cells, 24 h; compared to “Aβ”
Method: (§1) SH-SY5Y cells were seeded in 100 mm-cell dishes (BD Biocoat) at concentrations of 3.7×10^5 cells/mL (10 mL/dish) and cultured for 24 h at 37° C. and 5% CO2. Culture medium used was F12/DMEM (Gibco) supplemented with 1% non-essential amino acids (Gibco), 15% FBS (Bio West), and 1% penicillin/streptomycin (Lonza). After 24 h, the culture medium was completely removed with an aspirator, 10 mL of culture medium Opti-MEM(Gibco) was added to each dish, and the cells were cultured for 24 h at 37° C. and 5% CO2. RNA was extracted from the culture cells and analyzed for the expression of genes described below by real-time PCR (designated as “Control” in FIGS. 2 to 8).
(§2) RNA extraction was performed using ISOGEN Reagent (Nippon Gene Co., Ltd.) in accordance with the protocol recommended by Nippo n Gene Co., Ltd. (see URL: https://www.nippongene.com/siyaku/product/extraction/tds/tds_isogen-rna-dna-protein.pdf). Real-time PCR was performed according to the protocol recommended by Thermo Fisher Scientific using a reagent kit for TaqMan Real-Time PCR (Thermo Fisher Scientific) (see URL: https://assets.thermofisher.com/TFS-Assets/LSG/manuals/4304449_TaqManPCRMM_UG.pdf).
(§3) 24 h after seeding 100 mm-cell dishes (BD Biocoat) with SH-SY5Y cells, the culture medium was completely removed with an aspirator, amyloid β protein (Beta-Amyloid 1-42, AnaSpec) was mixed with Opti-MEM (Gibco) so that the final concentration was 5 μM, 10 mL of the mixture was added to each dish, the cells were cultured for 24 h at 37° C. and 5% CO2, and RNA was extracted. Except for performing the procedure described above, gene expression was analyzed as described above (designated as “Aβ” in FIGS. 2 to 8).
(§4) 24 h after seeding 100 mm-cell dishes (BD Biocoat) with SH-SY5Y cells, the culture medium was completely removed with an aspirator, Sample 1 was mixed with culture medium Opti-MEM(Gibco) so that the final concentration was 12.56 μM, 9,990 μL of the mixture was added to each dish and allowed to stand for 10 min, amyloid β protein (Beta-Amyloid 1-42, AnaSpec) was mixed with Opti-MEM (Gibco) so that the final concentration was […], 10 μL of the mixture was added to each well, the cells were cultured for 24 h at 37° C. and 5% CO2, and RNA was extracted. Except for performing the procedure described above, Gene expression was analyzed as described above (designated as “Aβ+M3,5G” in FIGS. 2 to 8).
(§5) Except that Sample 2 was used instead of Sample 1, gene expression was analyzed as described above (designated as “Aβ+M” in FIGS. 2 to 8).
(§6) Except that Sample 3 was used instead of Sample 1, gene expression was analyzed as described above (designated as “Aβ+M3G” in FIGS. 2 to 8). […]

[2] = tested on: MAP2K4 (mitogen-activated protein kinase 4); assay: Gene expression experiment (real-time PCR) in SH-SY5Y cells: MAP2K4; details: 12.56 μM, amyloid β protein-treated cells, 24 h; compared to “Aβ”
Method: as §1, §2, §3, §4, §5
(§7) Except that Sample 3 was used instead of Sample 1, gene expression was analyzed as described above (designated as “Aβ+M3G” in FIGS. 2 to 8).
(§8) 24 h after seeding 100 mm-cell dishes (BD Biocoat) with SH-SY5Y cells, the culture medium was completely removed with an aspirator, 10 mL of culture medium Opti-MEM(Gibco) mixed with Sample 1 was added to each dish, the cells were cultured for 24 h at 37° C. and 5% CO2, and RNA was extracted. Except for performing the procedure described above, gene expression was analyzed as described above (designated as “M3,5G” in FIGS. 2 to 8).

[3] = tested on: AKT1 (AKT serine/threonine kinase 1); assay: Gene expression experiment (real-time PCR) in SH-SY5Y cells: AKT1; details: 12.56 μM, amyloid β protein-treated cells, 24 h; compared to “Aβ”
Method: as §1, §2, §3, §4, §5, §7, §8

[4] = tested on: SH-SY5Y cells; assay: Cell survival experiment (MTT), cell death induced by amyloid β protein; details: compound 12.56 μM, 72 h, compared to “Aβ”
Method: Each well of a 96-well plate (BD Biocoat) was seeded with SH-SY5Y cells (model of neuronal cells, ATCC) at a concentration of 2×10^5 cells/mL (100 μL/well) and the cells were cultured at 37° C. and 5% CO2 for 24 h. Culture medium used was F12/DMEM (Gibco) supplemented with 1% non-essential amino acids (Gibco), 15% FBS (Bio West), and 1% penicillin/streptomycin (Lonza).
After 24 h, the culture medium was completely removed with an aspirator, 100 μL of culture medium Opti-MEM (Gibco) was added to each well, and the cells were cultured at 37° C. and 5% CO2 for 24 h. […]
Absorbance at 570 nm was measured on a microplate reader (Sumitomo Dainippon Pharma) to measure the MTT formazan production to calculate % relative cell survival (designated as “Control” in FIG. 1).
24 h after seeding a 96-well plate (BD Biocoat) with SH-SY5Y cells, the culture medium was completely removed with an aspirator, amyloid β protein (Beta-Amyloid 1-42, AnaSpec) was mixed with Opti-MEM (Gibco) so that the final concentration was 15 μM, 100 μL of the mixture was added to each well, and the cells were cultured at 37° C. and 5% CO2 for 72 h to induce cell death. Except for performing the procedure described above, the MTT formazan production was measured as described above to calculate % relative cell survival (designated as “Aβ” in FIG. 1). […]

[5] = tested on: PI3KCA (phosphatidylinositol-4,5-bisphosphate 3-kinase catalyst subunit α); assay: Gene expression experiment (real-time PCR) in SH-SY5Y cells: PI3KCA; details: 12.56 μM, amyloid β protein-treated cells, 24 h; compared to “Aβ”
Method: as §1, §2, §3, §4, §5, §7, §8

[6] = tested on: PARP1 (poly(ADP-ribose) polymerase 1); assay: Gene expression experiment (real-time PCR) in SH-SY5Y cells: PARP1; details: 12.56 μM, amyloid β protein-treated cells, 24 h; compared to “Aβ”
Method: as §1, §2, §3, §4, §5, §6

[7] = tested on: MAPK8 (mitogen-activated protein kinase 8); assay: Gene expression experiment (real-time PCR) in SH-SY5Y cells: MAPK8; details: 12.56 μM, amyloid β protein-treated cells, 24 h; compared to “Aβ”
Method: as §1, §2, §3, §4, §5, §6

[8] = tested on: CASP3 (caspase-3); assay: Gene expression experiment (real-time PCR) in SH-SY5Y cells: CASP3; details: 12.56 μM, amyloid β protein-treated cells, 24 h; compared to “Aβ”
Method: as §1, §2, §3, §4, §5, §7, §8

SMILES | expression of MAPK14 [1] | expression of MAP2K4 [2] | expression of AKT1 [3] | % relative cell survival [4] | expression of PI3KCA [5] | expression of PARP1 [6] | expression of MAPK8 [7] | expression of CASP3 [8]
COc1cc(-c2[o+]c3cc(O)cc(O)c3cc2O)cc(OC)c1O [malvidin, Malvidin chloride, reference compound] | increase | increase | increase | Inhibition of cell death was also confirmed | increase | increase | increase | decrease
COc1cc(-c2[o+]c3cc(O)cc(O)c3cc2O[C@@H]2O[C@H](CO)[C@@H](O)[C@H](O)[C@H]2O)cc(OC)c1O.[Cl-] [malvidin-3-glucoside, Malvidin-3-glucoside chloride, reference compound] | increase | increase | increase | – | increase | increase | – | –
